Reference: paper PMC3366674, “Epigenetic Tailoring for the Production of Anti-Infective Cytosporones from the Marine Fungus Leucostoma persoonii” (Marine Drugs, 2012)
Values after ≈ are worked out from the molar mass of the structure shown. Like-named read-outs stand apart in the source and are kept apart here.

Tests used:
[1] = tested on: methicillin-resistant Staphylococcus aureus (MRSA) USA100; experiment: Microtiter MIC determination against MRSA USA100; format: cell-based; details: for MIC: Staphylococcus aureus; for activity against MRSA: pure compound
Protocol: (§1) The strain of MRSA used in our bioassays is a hospital-associated clone from the CDC USA 100 lineage. […] It is thus deemed an extensively drug resistant strain, and something of a worst-case scenario MRSA isolate.
(§2) The minimum inhibitory concentration (MIC) of the pure compounds was determined as follows. Broth cultures were prepared for S. aureus strains as described above. These were diluted 1:1000 in fresh Trypticase Soy Broth (TSB) and 200 µL was applied to the wells of a sterile 96-well plate. Compounds (in DMSO) were added to wells at concentrations ranging from 1, 10, 25, 50 to 100 µg/mL in a volume no greater than 5 µL. Concentrations were adjusted to lower levels if applicable. Samples were mixed by pipetting and the plates were incubated at 37 °C overnight. MICs were determined by visual inspection for the minimum concentration of compound producing no bacterial growth, as determined by a lack of turbidity. Assays were repeated three times in order to verify the MIC determinations. […] Minimum bactericidal concentration (MBC) counts were performed on the MIC cultures by removing the growth media from each well the following morning, serially diluting, and plating onto Trypticase Soy Agar (TSA). These were incubated overnight at 37 °C and the bacterial loads of each well were determined by enumeration. Percentage killing was determined by the comparison of drug-containing wells to control wells where no compound was added.

[2] = tested on: methicillin-resistant Staphylococcus aureus (MRSA) USA100; experiment: Minimum bactericidal concentration (MBC) counts on MIC cultures; format: cell-based; details: for fold reduction in bacterial viability at MIC: MRSA USA100, at MIC; for MBC: Staphylococcus aureus, MRSA USA100, read-out: MRSA MBC90
Protocol: as §1, §2

MRSA biofilm = experiment: Minimum biofilm eradication count (MBEC) biofilm assay; format: cell-based, Staphylococcus aureus; details: MRSA USA100 biofilm; for MRSA MBEC90: 24 h exposure
Protocol: as §1
We performed minimum biofilm eradication count (MBEC) assays on cytosporones to assess their activity towards this form of bacterial growth. These were performed by generating S. aureus biofilms in a 96-well microtitre plate, as previously described. Once established, biofilm cultures were exposed to fresh growth media containing a range of concentrations of 15, 20, 25 and 50 µg/mL of the cytosporones. Control analyses were performed in parallel containing no compound. Cultures were incubated, covered, for 24 h at 37 °C without shaking. After this time the culture media was aseptically aspirated, and the wells rinsed twice with PBS to remove non-adherent cells. Fresh PBS (100 µL) was then added to the wells, and mixed by vigorous pipetting, to dislodge the biofilm matrix from the surface of the wells. These samples were serially diluted, plated on TSA, with cells enumerated after overnight incubation at 37 °C. Each of the above analyses was performed with 3 biological replicates, each of which also had 3 technical replicates. By comparing CFU/mL against control, no-exposed cultures, we were able to obtain a quantitative assessment of the impact of cytosporones on S. aureus biofilms.

A549 cells = experiment: A549 cytotoxicity assay (CellTiter 96 Aqueous One); format: cell-based, human; details: 72 h incubation
Protocol: Cell line A549 (adenocarcinomic human alveolar epithelial cells) was cultured in F-12K Nutrient Mixture (Kaighn’s Modification) media containing L-glutamine, supplemented with 10% fetal bovine serum and 1% penicillin-streptomycin. For the assay, the A549 cells were diluted to 1.33 × 10^5 cells/mL in DMEM F12 media with L-glutamine, without HEPES or phenol red, and supplemented with 2% fetal bovine serum and 1% penicillin-streptomycin. The A549 cells were dispensed into 96 well plates at a volume of 90 µL/well giving a final concentration of 12,000 cells per well. Plates were incubated for 24 h at 37 °C and 5% CO2. After 24 h, 10 µL of the test compounds at concentrations of 0.4, 1.2, 3.7, 11, 33.3 and 100 µg/mL were added to the 96 well plates containing A549 cells followed by 72 h of incubation at 37 °C and 5% CO2. A Beckman-Coulter Biomek NX 3000 was used to dispense cells and dispense test compounds to the 96 well plates. Positive (bronopol) and negative (blank DMSO) controls were included on each assay plate. After the incubation period, cell proliferation was assessed using Promega’s CellTiter 96 Aqueous One Solution Cell Proliferation Assay reagent. Into each well 20 µL of reagent was added followed by incubation for 3 h at 37 °C and 5% CO2. A Biotek plate reader was used to read absorbance at 490 nm and IC50 values were determined for each test compound.

Plasmodium falciparum = experiment: Malaria assay (luciferase-reporter Plasmodium falciparum); format: cell-based; details: for activity toward Plasmodium falciparum: levels tested up to 10 µg/mL
Protocol: Mangrove endophytes isolated as described above were subject to small-scale cultivation on Sabouraud dextrose agar (SDA), freeze dried, then extracted with methanol. Extracts at a concentration of 30 mg/mL were screened in a luciferase-reporter Plasmodium falciparum assay.
Malaria screening was done as previously reported.

[3] = tested on: methicillin-sensitive S. aureus (MSSA); experiment: Microtiter MIC determination against MSSA; format: cell-based; details: Staphylococcus aureus, methicillin-sensitive S. aureus strains
Protocol: as §2

[4] = MRSA USA100, overnight 37 °C, visual turbidity, read-out: MRSA MIC

Structure (SMILES) | MIC [1, 4] [µM] | fold reduction in bacterial viability at MIC [2] [fold] | bacterial killing at twice the MIC ([2]; MRSA USA100, at twice the MIC) | MBC [2] [µM] | MRSA MBEC90 (MRSA biofilm) [µM] | fold reduction in biofilm (MBEC assay) at MIC (MRSA biofilm) [fold] | fold reduction in biofilm formation at twice the MIC (MRSA biofilm; at twice the MIC) [fold] | IC50 (A549 cells; Homo sapiens) [µM] | IC90 (A549 cells; Homo sapiens, A549, 72 h) [µM] | activity toward Plasmodium falciparum (Plasmodium falciparum) | activity against MRSA [1] | IC90 (A549 cells; listed as Cytosporone E (3)) [µM] | IC90 (Plasmodium falciparum; Plasmodium falciparum, read-out: IC90 toward Plasmodium falciparum) [µM] | MIC [3] [µM] | MIC ([1]; read-out: MIC of positive control) [µg/mL]
CCCCCCCC(=O)c1c(O)cc(O)cc1CC(=O)OCC [Cytosporone B, cytosporone B] | 78 | 4.2 | complete killing of the bacteria | 93 (≈ 30 µg/mL) | 110 | 2 | 168 | 170 | 190 | inactive | – | – | – | – | –
CCCCCCCC1OC(=O)Cc2cc(O)cc(O)c21 (stereo not shown) [Cytosporone C, cytosporone C] | > 358 | – | – | – | – | – | – | 690 | 840 | inactive | inactive | – | – | – | –
CCCCCCCC1OC(=O)c2cc(O)c(O)c(O)c21 (stereo not shown) [Cytosporone E, cytosporone E] | 72 | > 5000 | – | 45 (≈ 12.6 µg/mL) | 39 | 183 | – | 280 | 437 | – | – | 440 | 13 | 72 (≈ 20.2 µg/mL) | –
CCCCCCCC(=O)c1c(O)cc(O)cc1CC(=O)OCC(O)CO (stereo not shown) [Cytosporone R, cytosporone R] | 503 | – | – | – | – | – | – | – | – | – | inactive | – | – | – | –
CN[C@H](CC(C)C)C(=O)N[C@H]1C(=O)N[C@@H](CC(N)=O)C(=O)N[C@H]2C(=O)N[C@H]3C(=O)N[C@H](C(=O)N[C@H](C(=O)O)c4cc(O)cc(O)c4-c4cc3ccc4O)[C@H](O)c3ccc(c(Cl)c3)Oc3cc2cc(c3O[C@@H]2O[C@H](CO)[C@@H](O)[C@H](O)[C@H]2O[C@H]2C[C@](C)(N)[C@H](O)[C@H](C)O2)Oc2ccc(cc2Cl)[C@H]1O [vancomycin, reference compound] | – | – | – | – | – | – | – | – | – | – | – | – | – | – | 1
